Reference: article PMC2241863 (Nucleic Acids Research, 2007)
pIC50: −log10 of the molar value.

How the values were obtained:
[1] = tested on: E. coli RNase P holoenzyme; assay: E. coli RNase P holoenzyme ptRNATyr processing assay, 'high-salt' buffer; assay type: biochemical, Escherichia coli; conditions: 1 mM added to assay
E. coli RPR = conditions: cited from earlier work
human RNase P = conditions: cited from earlier work
bacterial RNase P = conditions: 'low-salt' buffer, cited from earlier work; for pIC50: read-out: IC50 for inhibition of bacterial RNase P
[2] = tested on: E. coli RNase P holoenzyme; conditions: cited from earlier work

Row | SMILES | Effect on E. coli RNase P holoenzyme activity [1] | pIC50 (bacterial RNase P) | other results
1 | N=C(N)N [guanidine] | no effect | – | –
2 | NC[C@@H]1O[C@H](O[C@H]2[C@@H](O)[C@H](O[C@@H]3[C@@H](O)[C@H](N)C[C@H](N)[C@H]3O[C@H]3O[C@H](CO)[C@@H](O)[C@H](O)[C@H]3N)O[C@@H]2CO)[C@H](N)[C@@H](O)[C@@H]1O [Par, paromomycin] | – | – | Fold weaker than NeoB in inhibiting bacterial RPR (E. coli RPR): 6 fold
3 | N=C(N)NCCC[C@H](N)C(=O)NC[C@@H]1O[C@H](O[C@H]2[C@@H](O)[C@H](O[C@@H]3[C@@H](O)[C@H](NC(=O)[C@@H](N)CCCNC(=N)N)C[C@H](NC(=O)[C@@H](N)CCCNC(=N)N)[C@H]3O[C@H]3O[C@H](CNC(=O)[C@@H](N)CCCNC(=N)N)[C@@H](O)[C@H](O)[C@H]3NC(=O)[C@@H](N)CCCNC(=N)N)O[C@@H]2CO)[C@H](NC(=O)[C@@H](N)CCCNC(=N)N)[C@@H](O)[C@@H]1O [NeoR6] | – | 6.90 | Effectiveness against human RNase P compared with bacterial RNase P (human RNase P): not as effective; Potency of NeoR6 relative to NeoB in inhibiting bacterial RNase P (bacterial RNase P): 500 fold
4 | NC[C@@H]1O[C@H](O[C@H]2[C@@H](O)[C@H](O[C@@H]3[C@@H](O)[C@H](N)C[C@H](N)[C@H]3O[C@H]3O[C@H](CN)[C@@H](O)[C@H](O)[C@H]3N)O[C@@H]2CO)[C@H](N)[C@@H](O)[C@@H]1O [NeoB, neomycin B] | – | 4.22 | Increase in IC50 with mutations in E. coli RPR L15 loop (E. coli RPR; L15 mutations that weaken Mg2+ binding): 3 fold; Increase in IC50 in 'high-salt' instead of 'low-salt' buffer [2]: 7 fold
5 | N=C(N)NCCC[C@H](N)C(=O)O [arginine] | no effect | – | –
6 | NCCCC[C@H](N)C(=O)O [lysine] | no effect | – | –
